Results published in US5436229A, “Bisulfite adducts of arginine aldehydes” (Eli Lilly and Company, priority 1994, dated 1995).
Non-standard residues stand in square brackets, D forms with d. Residues, ends and D or L forms follow the SMILES beside them. dCha = N[C@H](CC1CCCCC1)C(=O)O

Tests used:
factor Xa = target: T1, factor Xa (Homo sapiens, UniProt P00742); experiment: Serine protease inhibition (Kass), factor Xa; type: biochemical
T1 construct: Human factors X, Xa, IXa, XIa, and XIIa are purchased from Enzyme Research Laboratories; purchased Enzyme Research Laboratories, South Bend, Ind
In short: (§1)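 Chromogenic p-nitroanilide substrate assays run as for human thrombin; trypsin with N-Benzoyl-Phe-Val-Arg-p-nitroanilide, human factor Xa with N-Benzoyl-Ile-Glu-Gly-Arg-p-nitroanilide. Values are association constants (Kass).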

human plasma [1] = experiment: Human plasma anticoagulation, thrombin time (TT); type: biochemical
In short: (§2)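 Compounds added across a wide concentration range to human plasma; APTT, PT and TT clotting times measured on a coagulation instrument, bovine thrombin used for plasma assays. Concentration doubling clotting time estimated by linear extrapolation.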

human plasma [2] = experiment: Human plasma anticoagulation, prothrombin time (PT); type: biochemical
In short: as §2

human thrombin = human thrombin (Homo sapiens, UniProt P00734); experiment: Thrombin amidase inhibition (Kass), chromogenic substrate; type: biochemical
In short: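 Kass, in liter per mole, was averaged over several compound concentrations, using free thrombin from a rate standard curve and free inhibitor as added minus bound. Hydrolysis of chromogenic substrate (0.25 mg/ml solution) was monitored at 405 nm with human thrombin (8 NIH units/ml solution) in Tris-NaCl buffer pH 7.4, compound in 50% aqueous methanol.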

[3] = Index of Bioavailability (plasma TT AUC, oral vs i.v.); type: in vivo; conditions: rats, oral vs i.v. bolus
From the text: Assays are done in duplicate and averaged.
Each sample population represents alternating sequential time points.

human plasma [4] = experiment: Human plasma anticoagulation, activated partial thromboplastin time (APTT); type: biochemical
In short: as §2

Human plasmin = target: T2, Human plasmin (Homo sapiens, UniProt P00747); experiment: Serine protease inhibition (Kass), plasmin; type: biochemical
T2 construct: Human plasmin is purchased from Boehringer Mannheim; purchased Boehringer Mannheim, Indianapolis, Ind
In short: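 Kass values come from the thrombin chromogenic procedure applied to fibrinolytic proteases. t-PA (nt-PA single chain, or mt-PA6) paired with substrate H-D-Ile-Pro-Arg-p-nitroanilide; human plasmin paired with H-D-Val-Leu-Lys-p-nitroanilide.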

Bovine trypsin = target: T3, Bovine trypsin (Bos taurus, UniProt P00760); experiment: Serine protease inhibition (Kass), trypsin; type: biochemical
T3 construct: Bovine trypsin is purchased from Worthington Biochemicals; purchased Worthington Biochemicals, Freehold, N.J
T3 sequence (P00760 24-246): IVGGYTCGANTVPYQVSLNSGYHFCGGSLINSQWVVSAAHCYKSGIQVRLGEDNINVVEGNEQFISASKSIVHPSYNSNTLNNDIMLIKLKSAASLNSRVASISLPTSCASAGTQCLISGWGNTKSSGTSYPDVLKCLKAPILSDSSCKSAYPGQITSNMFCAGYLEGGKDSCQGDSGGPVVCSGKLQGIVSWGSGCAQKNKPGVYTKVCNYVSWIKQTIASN
In short: as §1

[5] = target: T4, tissue plasminogen activator (t-PA) (Homo sapiens, UniProt P00750); experiment: Serine protease inhibition (Kass), t-PA; type: biochemical
T4 construct: purchased American Diagnostica, Greenwich, Conn
T4 sequence (P00750 36-562): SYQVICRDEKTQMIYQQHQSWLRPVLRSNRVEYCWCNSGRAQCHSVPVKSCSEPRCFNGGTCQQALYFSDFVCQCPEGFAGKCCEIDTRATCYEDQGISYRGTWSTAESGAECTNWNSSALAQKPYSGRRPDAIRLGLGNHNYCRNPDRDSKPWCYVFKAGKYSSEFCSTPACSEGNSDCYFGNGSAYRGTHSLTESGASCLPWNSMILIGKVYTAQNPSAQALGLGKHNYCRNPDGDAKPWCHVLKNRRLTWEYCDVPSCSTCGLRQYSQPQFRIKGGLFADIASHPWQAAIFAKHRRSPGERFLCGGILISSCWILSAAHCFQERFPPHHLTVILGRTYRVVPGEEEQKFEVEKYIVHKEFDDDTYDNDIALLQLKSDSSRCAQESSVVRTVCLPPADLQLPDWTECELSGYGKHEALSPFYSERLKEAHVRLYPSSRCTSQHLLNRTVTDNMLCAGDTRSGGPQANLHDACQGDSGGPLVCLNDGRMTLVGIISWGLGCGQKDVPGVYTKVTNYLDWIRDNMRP

T2 sequence (P00747 581-810 limits assumed): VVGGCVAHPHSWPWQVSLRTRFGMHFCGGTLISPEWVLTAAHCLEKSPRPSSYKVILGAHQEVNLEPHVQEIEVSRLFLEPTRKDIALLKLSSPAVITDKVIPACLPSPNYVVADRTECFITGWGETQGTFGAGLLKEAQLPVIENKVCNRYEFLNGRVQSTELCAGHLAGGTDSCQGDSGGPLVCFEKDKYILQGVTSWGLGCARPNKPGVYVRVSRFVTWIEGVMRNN
T2 sequence (P00747 97-580 partner limits assumed): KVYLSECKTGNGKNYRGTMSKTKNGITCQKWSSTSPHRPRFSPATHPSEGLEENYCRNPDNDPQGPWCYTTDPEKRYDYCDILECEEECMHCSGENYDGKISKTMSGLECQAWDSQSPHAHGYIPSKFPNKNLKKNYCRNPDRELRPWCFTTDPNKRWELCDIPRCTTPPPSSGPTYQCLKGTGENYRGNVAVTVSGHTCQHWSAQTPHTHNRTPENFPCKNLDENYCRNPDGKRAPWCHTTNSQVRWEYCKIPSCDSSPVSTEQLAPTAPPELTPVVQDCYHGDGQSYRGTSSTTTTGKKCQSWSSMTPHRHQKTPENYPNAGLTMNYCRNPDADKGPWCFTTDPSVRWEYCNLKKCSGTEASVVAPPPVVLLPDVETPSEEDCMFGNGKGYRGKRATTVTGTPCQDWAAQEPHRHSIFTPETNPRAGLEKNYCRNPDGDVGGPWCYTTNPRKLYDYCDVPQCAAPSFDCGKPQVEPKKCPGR
T1 sequence (P00742 235-488 limits assumed): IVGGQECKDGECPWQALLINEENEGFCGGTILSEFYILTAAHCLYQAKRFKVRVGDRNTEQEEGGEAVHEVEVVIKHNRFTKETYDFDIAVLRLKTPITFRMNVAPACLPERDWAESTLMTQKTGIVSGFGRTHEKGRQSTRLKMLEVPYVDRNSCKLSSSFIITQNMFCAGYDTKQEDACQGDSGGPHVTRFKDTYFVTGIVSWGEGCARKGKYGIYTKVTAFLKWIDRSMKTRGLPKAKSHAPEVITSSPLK
T1 sequence (P00742 41-179 partner limits assumed): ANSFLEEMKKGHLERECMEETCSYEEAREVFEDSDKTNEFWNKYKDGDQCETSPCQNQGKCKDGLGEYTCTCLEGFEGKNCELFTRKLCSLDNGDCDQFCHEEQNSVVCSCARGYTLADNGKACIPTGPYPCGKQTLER

SMILES | Kass Xa (factor Xa) [L/mol × 10^6] | 2 × Clotting time TT (human plasma [1]) [ng/mL] | 2 × Clotting time PT (human plasma [2]) | Kass Human Thrombin (human thrombin) | Percent Relative Activity (Index of Bioavailability) [3] [%] | 2 × Clotting time APTT (human plasma [4]) | Kass Plasmin (Human plasmin) [L/mol × 10^6] | Kass Trypsin (Bovine trypsin) [L/mol × 10^6] | Kass t-PA [5] [L/mol × 10^6]
CS(=O)(=O)N[C@H](Cc1ccccc1)C(=O)N1CCC[C@H]1C(=O)N[C@H](C=O)CCCNC(=N)N.Cl [Example 51, N-(methylsulfonyl)-D-phenylalanyl-L-Prolinyl-L-Arginine Aldehyde Hydrochloride] | 2.4 | 21 | 530 ng/mL | 690 L/mol × 10^6 | 27 | 330 ng/mL | 17 | 220 | 13
Cl.N=C(N)NCCC[C@@H](C=O)NC(=O)[C@@H]1CCCN1C(=O)[C@@H](Cc1ccccc1)NC(=O)c1cc2ccccc2cn1 [Example 46, N-(isoquinolinyl-2-carbonyl)-D-phenylalanyl-L-Prolinyl-L-Arginine Aldehyde Hydrochloride] | 0.16 | 35 | 1,400 ng/mL | 110 L/mol × 10^6 | 1 | 1,100 ng/mL | 0.55 | 22 | 0.32
CCS(=O)(=O)N[C@H](CC1CCCCC1)C(=O)N1CCC[C@H]1C(=O)N[C@H](C=O)CCCNC(=N)N.Cl [Example 65, N-(ethylsulfonyl)-D-cyclohexylalanyl-L-Prolinyl-L-Arginine Aldehyde Hydrochloride] | 20 | 25 | 730 ng/mL | 550 L/mol × 10^6 | 19 | 260 ng/mL | 45 | 200 | 0.73
CCCS(=O)(=O)N[C@H](Cc1ccccc1)C(=O)N1CCC[C@H]1C(=O)N[C@H](C=O)CCCNC(=N)N.Cl [Example 53, N-(n-propylsulfonyl)-D-phenylalanyl-L-Prolinyl-L-Arginine Aldehyde Hydrochloride] | 13 | 6 | 510 ng/mL | 1,700 L/mol × 10^6 | 14 | 220 ng/mL | 29 | 480 | 2.8
Cl.N=C(N)NCCC[C@@H](C=O)NC(=O)[C@@H]1CCCN1C(=O)[C@@H](Cc1ccccc1)NS(=O)(=O)c1ccc(F)cc1F [Example 58, N-(2,4-difluorophenylsulfonyl)-D-phenylalanyl-L-Prolinyl-L-Arginine Aldehyde Hydrochloride] | 11 | 21 | 940 ng/mL | 230 L/mol × 10^6 | 6 | 350 ng/mL | 25 | 160 | 2.4
Cl.N=C(N)NCCC[C@@H](C=O)NC(=O)[C@@H]1CCCN1C(=O)[C@@H](Cc1ccccc1)NS(=O)(=O)c1ccc(C(=O)O)cc1 [Example 62, N-(4-carboxyphenylsulfonyl)-D-phenylalanyl-L-Prolinyl-L-Arginine Aldehyde Hydrochloride] | 2.0 | 120 | 3,000 ng/mL | 70 L/mol × 10^6 | 13 | 1,200 ng/mL | 7.0 | 43 | 1.1
CC(=O)N[C@H](CC1CCCCC1)C(=O)N1CCC[C@H]1C(=O)N[C@H](C=O)CCCNC(=N)N.Cl [Example 72, N-(acetyl)-D-cyclohexylalanyl-L-Prolinyl-L-Arginine Aldehyde Hydrochloride] (Ac-[dCha]-Pro-Arg-aldehyde) | 1.1 | 92 | 3,500 ng/mL | 26 L/mol × 10^6 | 9 | 1,900 ng/mL | 0.61 | 12 | 0.035
CCCCS(=O)(=O)N[C@H](Cc1ccccc1)C(=O)N1CCC[C@H]1C(=O)N[C@H](C=O)CCCNC(=N)N.Cl [Example 54, N-(n-butylsulfonyl)-D-phenylalanyl-L-Prolinyl-L-Arginine Aldehyde Hydrochloride] | 8.3 | 18 | 700 ng/mL | 470 L/mol × 10^6 | 18 | 300 ng/mL | 27 | 230 | 0.83
